The target of the assay is T1, Sortase A (SrtA) (Staphylococcus aureus, UniProt Q2FV99).
T1 sequence (Q2FV99 60-206 limits assumed): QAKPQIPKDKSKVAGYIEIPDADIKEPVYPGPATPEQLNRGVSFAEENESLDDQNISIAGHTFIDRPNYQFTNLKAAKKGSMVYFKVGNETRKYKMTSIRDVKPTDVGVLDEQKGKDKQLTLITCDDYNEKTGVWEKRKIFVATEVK
The assay is described as follows: fluorescence quenching. It is filed as binding.

Molecules are shown by their SMILES.

As a reminder, the Kd is the free concentration of one partner at which half of the binding sites on the other are occupied at equilibrium, for simple one-to-one binding. A high value points to weaker binding. `Oc1cc(O)c2cc(O)c(-c3ccc(O)c(O)c3)[o+]c2c1` [cyanidin chloride]: the affinity, expressed as Kd, was 13.8 µM.

For the origin of these results see PMC9397467 (Virulence, 2022).
